The target of assay [1] is class C beta-lactamase of Escherichia coli K12 (Escherichia coli, UniProt P00811). The note with it: cited from earlier work.
Assay [2] concerns class C beta-lactamase of Enterobacter cloacae 908R. The note with it: cited from earlier work.
The target of assay [3] is class C beta-lactamase of Serratia marcescens (Serratia marcescens, UniProt P18539). The note with it: cited from earlier work; for kcat: Serratia marcescens.
The target of assay [4] is class C beta-lactamase of Citrobacter freundii (Citrobacter freundii, UniProt P05193). The note with it: cited from earlier work.
For assay [5], the target named is class C beta-lactamase of Enterobacter cloacae P99 (Enterobacter cloacae, UniProt P05364). The note with it: cited from earlier work.
The target in assay [6] is class C beta-lactamase of Pseudomonas aeruginosa (Pseudomonas aeruginosa, UniProt P24735). The note with it: cited from earlier work; for kcat: Pseudomonas aeruginosa.
In assay [7] the target is T1, P99 beta-lactamase (Enterobacter cloacae, UniProt P05364). Description: Kinetic assay, reporter substrate competition (colorimetric assay). Further details: made in house; host or cells: E. coli BL21(DE3), pET28-P99. It counts as biochemical. From the text: (§1) The colorimetric assay used the competition between a reporter substrate and a beta-lactam antibiotic towards the catalytic site of the class C beta-lactamase. In the absence of beta-lactam antibiotic, the class C beta-lactamase P99 hydrolyzed rapidly the reporter substrate and this reaction produced a deep red (nitrocefin) or yellow (CENTA) coloration.
(§2) In the presence of beta-lactam antibiotic, P99 catalytic activity was less available and thus less able to hydrolyze the reporter substrate. Accordingly, the higher the concentration of beta-lactam antibiotic, the lower the coloration of the medium. In this enzymatic competitive kinetic assay, the UV-Visible absorbance was inversely proportional to the concentration of beta-lactam antibiotic.
(§3) Report substrate: A stock solution of reporter substrate consisting of 10 mM of CENTA in HEPES (4-(2-hydroxyethyl)-1-piperazineethanesulfonic acid) pH 7.8 (20 mM)/NaCl (200 mM) buffer was diluted 10 times in HEPES pH 7.8 (20 mM)/NaCl (200 mM) buffer.
(§4) Solution of enzyme: in a spectrophotometer cell, containing HEPES/NaCl buffer (400 μL) and CENTA (100 μL, 100 μM); 20 μL of P99 enzyme solution was added. The concentration of P99 enzyme was variable in function of the preparation and ranged between 0.01 mg/ml to 100 mg/ml. The absorbance variation was measured at 405 nm during 1 min. The enzyme solution used in the experiment was then diluted until the absorbance variation was comprised between 35 and 45 mUAbs/min cm^−1. This diluted solution was further used in this example.
(§5) 8 standard solutions per antibiotic tested were deposited on a 96-well microplate (40 μL).
(§6) The absorbance was measured using a microplate reader, with each column being measured separately. The program comprised following the kinetic during 4 min, with 1 measure at 405 nm every 10 seconds (24 measures). In each well and simultaneously, a mixture of 45 μl HEPES/NaCl buffer and 5 μl P99 solution was added. The same mixture was used for the 8 wells of each column, and thus prepared in advance for distribution with a multi-channel pipette. After 1 min incubation at 20° C., the reading was started, and KC Junior™ software (BioTek Instruments, Winooski, Vt.) was used to calculate the slope of each reaction kinetic. The experiments were made in triplicate and reproduced over 5 different days.
(§7) Kinetic assays with the P99 beta-lactamase and with P99A266C beta-lactamase were performed in order to test and compare the enzyme activities.
Target sequence in this assay (P05364 22-380, added parts left off): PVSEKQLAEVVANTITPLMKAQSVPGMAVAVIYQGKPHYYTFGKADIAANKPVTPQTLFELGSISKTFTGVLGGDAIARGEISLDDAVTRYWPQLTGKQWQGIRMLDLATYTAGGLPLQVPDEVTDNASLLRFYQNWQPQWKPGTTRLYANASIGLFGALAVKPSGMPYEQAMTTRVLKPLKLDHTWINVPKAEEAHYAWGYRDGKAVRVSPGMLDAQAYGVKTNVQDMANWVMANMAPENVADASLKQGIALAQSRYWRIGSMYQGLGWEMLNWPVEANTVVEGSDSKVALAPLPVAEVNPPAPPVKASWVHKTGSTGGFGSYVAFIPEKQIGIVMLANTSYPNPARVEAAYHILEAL

Another assay addresses T2, P99A266C beta-lactamase (Enterobacter cloacae, UniProt P05364, A266C).
T2 construct: made in house; host or cells: E. coli BL21(DE3), pET28 vector
Described as above. Type of assay: biochemical, Enterobacter cloacae P99.
Source text: as §1, §2, §3, §4, §5, §6, §7

The target of assay [8] is T1, P99 beta-lactamase. Type of assay: biochemical.
Target sequence in this assay (P05364 21-381): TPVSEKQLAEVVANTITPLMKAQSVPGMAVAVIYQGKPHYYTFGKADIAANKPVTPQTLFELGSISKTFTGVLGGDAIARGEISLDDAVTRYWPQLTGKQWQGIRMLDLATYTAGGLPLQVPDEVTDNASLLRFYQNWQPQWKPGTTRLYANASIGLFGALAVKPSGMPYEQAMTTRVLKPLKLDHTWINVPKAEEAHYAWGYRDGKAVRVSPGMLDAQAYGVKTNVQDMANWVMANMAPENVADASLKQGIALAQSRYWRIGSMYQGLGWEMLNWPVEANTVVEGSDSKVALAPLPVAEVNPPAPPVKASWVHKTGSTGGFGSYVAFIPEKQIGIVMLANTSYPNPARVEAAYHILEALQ

Read-outs that look alike come from different tables or passages of the source.

Chain of class C beta-lactamase of Enterobacter cloacae P99 (P05364 21-381): as above
Chain of class C beta-lactamase of Serratia marcescens (P18539 22-376): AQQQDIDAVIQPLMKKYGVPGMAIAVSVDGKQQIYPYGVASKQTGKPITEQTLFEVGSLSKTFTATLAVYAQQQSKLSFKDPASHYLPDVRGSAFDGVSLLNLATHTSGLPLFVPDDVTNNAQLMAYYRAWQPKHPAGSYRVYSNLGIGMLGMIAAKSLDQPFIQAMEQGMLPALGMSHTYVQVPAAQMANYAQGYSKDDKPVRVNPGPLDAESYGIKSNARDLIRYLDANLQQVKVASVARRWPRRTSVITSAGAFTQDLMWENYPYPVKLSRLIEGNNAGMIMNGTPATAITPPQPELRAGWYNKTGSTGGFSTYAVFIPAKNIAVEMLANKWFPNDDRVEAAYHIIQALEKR
Chain of class C beta-lactamase of Escherichia coli K12 (P00811 20-377): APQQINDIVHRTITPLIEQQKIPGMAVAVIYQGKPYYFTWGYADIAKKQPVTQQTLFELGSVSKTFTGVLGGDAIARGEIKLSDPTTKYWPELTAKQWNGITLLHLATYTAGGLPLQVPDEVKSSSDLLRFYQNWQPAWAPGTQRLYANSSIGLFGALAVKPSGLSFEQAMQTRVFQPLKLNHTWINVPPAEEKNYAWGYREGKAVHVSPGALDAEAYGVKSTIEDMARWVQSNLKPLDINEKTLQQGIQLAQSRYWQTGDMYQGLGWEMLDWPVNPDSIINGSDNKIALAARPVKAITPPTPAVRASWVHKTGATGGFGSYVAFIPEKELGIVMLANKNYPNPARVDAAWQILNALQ
Chain of class C beta-lactamase of Pseudomonas aeruginosa (P24735 27-397): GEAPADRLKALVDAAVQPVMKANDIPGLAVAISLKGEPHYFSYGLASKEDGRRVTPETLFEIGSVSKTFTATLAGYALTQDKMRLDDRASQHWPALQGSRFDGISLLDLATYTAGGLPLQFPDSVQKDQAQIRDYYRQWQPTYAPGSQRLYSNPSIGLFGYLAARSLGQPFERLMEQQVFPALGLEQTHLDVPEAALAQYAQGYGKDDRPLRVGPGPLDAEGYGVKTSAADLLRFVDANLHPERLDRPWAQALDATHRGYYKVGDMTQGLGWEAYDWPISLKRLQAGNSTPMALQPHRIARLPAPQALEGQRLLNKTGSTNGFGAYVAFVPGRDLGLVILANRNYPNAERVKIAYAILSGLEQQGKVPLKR
T2 sequence (P05364 other isoform, or with tags, fused parts or gaps A266C): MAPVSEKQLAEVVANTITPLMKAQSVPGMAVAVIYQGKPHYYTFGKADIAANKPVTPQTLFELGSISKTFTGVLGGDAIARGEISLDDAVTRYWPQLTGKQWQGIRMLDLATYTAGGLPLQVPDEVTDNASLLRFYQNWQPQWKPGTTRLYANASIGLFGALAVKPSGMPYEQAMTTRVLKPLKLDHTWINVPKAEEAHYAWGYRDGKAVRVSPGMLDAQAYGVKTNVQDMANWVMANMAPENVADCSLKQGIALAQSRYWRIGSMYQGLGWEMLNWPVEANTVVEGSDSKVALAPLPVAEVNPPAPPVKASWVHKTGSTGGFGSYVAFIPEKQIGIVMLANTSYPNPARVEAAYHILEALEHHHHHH
Chain of class C beta-lactamase of Citrobacter freundii (P05193 21-381): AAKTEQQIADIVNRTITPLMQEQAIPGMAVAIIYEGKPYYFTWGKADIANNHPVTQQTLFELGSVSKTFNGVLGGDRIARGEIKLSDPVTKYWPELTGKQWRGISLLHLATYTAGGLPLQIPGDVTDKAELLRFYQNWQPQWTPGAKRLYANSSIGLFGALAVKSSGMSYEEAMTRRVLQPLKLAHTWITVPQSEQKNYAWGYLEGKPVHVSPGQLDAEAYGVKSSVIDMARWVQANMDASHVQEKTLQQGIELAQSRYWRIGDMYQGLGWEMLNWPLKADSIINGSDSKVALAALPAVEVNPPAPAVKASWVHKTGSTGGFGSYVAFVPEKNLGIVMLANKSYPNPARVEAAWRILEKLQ

As a reminder, the kcat is the number of substrate molecules converted per active site and unit of time at saturation. What is called Km is the substrate concentration at which the rate is half of its maximum. In the case of `CC1(C)S[C@@H]2[C@H](NC(=O)Cc3ccccc3)C(=O)N2[C@H]1C(=O)O` [Benzylpenicillin], the kcat was 45 s⁻¹ in [1]; 18 s⁻¹ in [2]; 75 s⁻¹ in [3]; 31 s⁻¹ in assay [4]; 14 s⁻¹ in assay [5]; 76 s⁻¹ in [6]. The Michaelis-Menten constant (Km) in assay [2] was 0.5 µM; in [3], 1.7 µM; in [4], 0.4 µM; in assay [5], 0.6 µM; in assay [6], 1.7 µM.
As to `O=C(Cc1cccs1)N[C@@H]1C(=O)N2C(C(=O)[O-])=C(C[n+]3ccccc3)CS[C@H]12` [Cephaloridine], the kcat in assay [1] is 130 s⁻¹; in [2] it was 600 s⁻¹; in assay [3], 1100 s⁻¹; in [4] it was 700 s⁻¹; in assay [5], 700 s⁻¹; in [6], 110 s⁻¹. Moreover, the Km in [2] was 75 µM; in assay [3] it was 275 µM; in assay [6] it was 20 µM.
For the compound `O=C(Cc1cccs1)N[C@@H]1C(=O)N2C(C(=O)O)=C(/C=C/c3ccc([N+](=O)[O-])cc3[N+](=O)[O-])CS[C@H]12` [Nitrocefin], the kcat in [1] is 490 s⁻¹; in [2] it was 780 s⁻¹; in assay [3], 1240 s⁻¹; in assay [4], 330 s⁻¹; in [5], 780 s⁻¹; in [6] it was 742 s⁻¹. The Michaelis-Menten constant (Km) was 23 µM in assay [2], 40 µM in assay [3], 25 µM in assay [5] (read-out: Km) and 27 µM in assay [6].
Turning to `CCN1CCN(C(=O)N[C@@H](C(=O)N[C@@H]2C(=O)N3[C@@H]2SC(C)(C)[C@@H]3C(=O)O)c2ccccc2)C(=O)C1=O` [Piperacillin], the P99 rate amounted to 9.7 mUAbs/min on P99 beta-lactamase [7] (antibiotic 5 ug/ml), 6.4 mUAbs/min on P99 beta-lactamase [7] (antibiotic 10 ug/ml), 4.0 mUAbs/min at P99 beta-lactamase [7] (antibiotic 20 ug/ml) and 2.4 mUAbs/min on P99 beta-lactamase [7] (antibiotic 40 ug/ml). The “Diff. (%) P99 vs P99A266C” value is 16% on P99A266C beta-lactamase (antibiotic 5 ug/ml), 4% at P99A266C beta-lactamase (antibiotic 10 ug/ml), 6% on P99A266C beta-lactamase (antibiotic 20 ug/ml) and −4% on P99A266C beta-lactamase (antibiotic 40 ug/ml). The P99A266C rate was found to be 8.3 mUAbs/min at P99A266C beta-lactamase (antibiotic 5 ug/ml), 6.1 mUAbs/min at P99A266C beta-lactamase (antibiotic 10 ug/ml), 3.8 mUAbs/min at P99A266C beta-lactamase (antibiotic 20 ug/ml) and 2.5 mUAbs/min at P99A266C beta-lactamase (antibiotic 40 ug/ml).
Regarding ampicillin-fluorescein [Ampi-flu], the “v0 (standard curve)” value at P99 beta-lactamase [8] (0.1 mg/L) is on record as 0.2638 ΔAbs482/min; at P99 beta-lactamase [8] (0.5 mg/L) it was 0.2336 ΔAbs482/min; at P99 beta-lactamase [8] (1.5 mg/L) it was 0.169 ΔAbs482/min; at P99 beta-lactamase [8] (3 mg/L), 0.1064 ΔAbs482/min; at P99 beta-lactamase [8] (5 mg/L), 0.063 ΔAbs482/min; on P99 beta-lactamase [8] (7.5 mg/L), 0.0389 ΔAbs482/min. Also, on P99 beta-lactamase [8] (10 mg/L), the “v0 (standard curve)” value is given as 0.025 ΔAbs482/min. Further, the “v0/v0max (standard curve)” value on P99 beta-lactamase [8] (0.1 mg/L) came to 98%; at P99 beta-lactamase [8] (0.5 mg/L), 87%; on P99 beta-lactamase [8] (1.5 mg/L) it was 63%; at P99 beta-lactamase [8] (3 mg/L), 39%; at P99 beta-lactamase [8] (5 mg/L), 23%; on P99 beta-lactamase [8] (7.5 mg/L) it was 14%. At P99 beta-lactamase [8] (10 mg/L), the “v0/v0max (standard curve)” value worked out at 9%. The “v0/v0max due to ampi-flu” value at P99 beta-lactamase [8] (sample 3, calculated from equation 3) is 59%.

Values taken from patent publication US9689021B2, “Method for measuring beta-lactam antibiotics” (priority 2011, dated 2017).
